In ChEMBL document CHEMBL5465560, “Selectivity Literature for EUbOPEN Chemogenomic Library” (2024):
Changes are numbered by the printed parent chain.

Assays:
[1] = target: Serine/threonine-protein kinase NIM1 (Homo sapiens, UniProt Q8IY84); assay: Selectivity interaction (KinomeScan (DiscoverX)) EUB0000045b NIM1K
[2] = test system: T1, Receptor-type tyrosine-protein kinase FLT3 (Homo sapiens), P36888 [R834Q]; assay: (§1) Selectivity interaction (KinomeScan (DiscoverX)) EUB0000695a FLT3; settings: at 100 nM
T1 sequence (whole entry): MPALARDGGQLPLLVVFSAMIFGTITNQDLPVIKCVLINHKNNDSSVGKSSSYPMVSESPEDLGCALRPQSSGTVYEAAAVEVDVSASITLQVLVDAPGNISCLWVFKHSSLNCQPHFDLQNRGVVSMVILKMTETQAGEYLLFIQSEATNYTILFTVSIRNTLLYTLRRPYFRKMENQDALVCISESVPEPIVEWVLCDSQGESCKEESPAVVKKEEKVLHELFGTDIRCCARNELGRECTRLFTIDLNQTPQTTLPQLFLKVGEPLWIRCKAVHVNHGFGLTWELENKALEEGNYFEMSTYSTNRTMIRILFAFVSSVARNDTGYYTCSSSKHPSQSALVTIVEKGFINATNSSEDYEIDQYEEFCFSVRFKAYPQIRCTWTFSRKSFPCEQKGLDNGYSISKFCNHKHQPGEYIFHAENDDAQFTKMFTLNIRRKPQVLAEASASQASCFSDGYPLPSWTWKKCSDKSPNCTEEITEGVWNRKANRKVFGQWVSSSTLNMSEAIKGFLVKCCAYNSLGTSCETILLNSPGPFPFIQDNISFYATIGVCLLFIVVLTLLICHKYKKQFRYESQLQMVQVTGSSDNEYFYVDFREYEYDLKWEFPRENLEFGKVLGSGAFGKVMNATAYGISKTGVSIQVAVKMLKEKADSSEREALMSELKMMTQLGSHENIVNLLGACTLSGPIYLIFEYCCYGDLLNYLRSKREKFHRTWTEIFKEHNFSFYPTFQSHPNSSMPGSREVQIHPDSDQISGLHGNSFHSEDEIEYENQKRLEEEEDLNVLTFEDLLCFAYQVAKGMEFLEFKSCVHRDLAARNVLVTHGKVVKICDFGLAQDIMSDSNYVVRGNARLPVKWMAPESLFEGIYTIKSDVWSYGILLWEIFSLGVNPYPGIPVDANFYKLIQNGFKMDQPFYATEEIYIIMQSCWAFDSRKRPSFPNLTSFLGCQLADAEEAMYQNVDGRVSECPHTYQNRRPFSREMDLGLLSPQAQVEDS

[3] = test system: T2, Receptor-type tyrosine-protein kinase FLT3 (Homo sapiens), P36888 [K663Q]; assay: as §1; settings: at 100 nM
T2 sequence (whole entry): T1 sequence (whole entry) with K663Q, Q834R

[4] = target: Phosphatidylinositol 4-kinase alpha (Homo sapiens, UniProt P42356); assay: Selectivity interaction (Adapta Assay) EUB0001632a PI4KA; settings: at 10 µM
[5] = target: Histone-lysine N-methyltransferase, H3 lysine-36 specific (Homo sapiens) (UniProt Q96L73); assay: Selectivity interaction (Methyltransferase screen (radiometric assays, panel of 8 PRMTs, 21 protein lysine methyltransferases, 3 DNA methyltransferases, and one RNA methyltransferase)) EUB0000272b NSD1; settings: at 10 µM
[6] = target: T3, SNF-related serine/threonine-protein kinase (Homo sapiens) (UniProt Q9NRH2); settings: at 10 µM
T3 sequence (whole entry): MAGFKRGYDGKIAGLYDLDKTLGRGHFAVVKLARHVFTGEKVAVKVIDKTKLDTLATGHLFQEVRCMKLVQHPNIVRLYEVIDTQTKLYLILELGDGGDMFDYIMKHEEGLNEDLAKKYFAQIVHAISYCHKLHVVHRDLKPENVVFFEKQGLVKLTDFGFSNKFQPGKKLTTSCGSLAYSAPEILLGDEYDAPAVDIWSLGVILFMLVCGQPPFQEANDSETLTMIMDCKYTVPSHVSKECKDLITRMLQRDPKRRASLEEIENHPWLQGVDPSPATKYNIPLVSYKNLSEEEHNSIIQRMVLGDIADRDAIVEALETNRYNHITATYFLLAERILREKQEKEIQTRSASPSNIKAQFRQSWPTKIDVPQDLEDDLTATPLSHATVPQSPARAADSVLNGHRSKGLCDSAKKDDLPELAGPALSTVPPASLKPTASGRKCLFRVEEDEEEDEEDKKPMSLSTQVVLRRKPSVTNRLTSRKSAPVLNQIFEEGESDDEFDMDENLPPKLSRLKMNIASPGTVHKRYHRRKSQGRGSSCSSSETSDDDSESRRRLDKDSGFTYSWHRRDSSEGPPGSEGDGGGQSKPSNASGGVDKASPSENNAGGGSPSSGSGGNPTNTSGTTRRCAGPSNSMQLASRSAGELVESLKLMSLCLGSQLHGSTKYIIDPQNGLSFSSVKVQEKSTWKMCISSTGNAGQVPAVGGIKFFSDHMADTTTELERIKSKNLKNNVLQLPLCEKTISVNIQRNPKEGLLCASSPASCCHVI

Chain of Serine/threonine-protein kinase NIM1 (Q8IY84 whole entry): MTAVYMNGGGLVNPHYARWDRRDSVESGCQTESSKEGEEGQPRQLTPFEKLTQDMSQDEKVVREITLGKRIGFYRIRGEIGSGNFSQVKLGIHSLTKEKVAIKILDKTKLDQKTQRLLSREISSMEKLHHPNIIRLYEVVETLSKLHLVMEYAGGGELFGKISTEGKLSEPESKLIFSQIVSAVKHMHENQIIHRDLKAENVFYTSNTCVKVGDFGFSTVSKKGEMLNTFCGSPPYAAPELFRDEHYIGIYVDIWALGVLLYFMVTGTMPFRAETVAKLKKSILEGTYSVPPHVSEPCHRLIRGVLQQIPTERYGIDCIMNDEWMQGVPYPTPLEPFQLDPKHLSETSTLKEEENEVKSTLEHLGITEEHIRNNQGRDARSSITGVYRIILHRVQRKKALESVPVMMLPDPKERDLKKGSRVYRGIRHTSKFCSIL
Chain of Phosphatidylinositol 4-kinase alpha (P42356 whole entry, looked up): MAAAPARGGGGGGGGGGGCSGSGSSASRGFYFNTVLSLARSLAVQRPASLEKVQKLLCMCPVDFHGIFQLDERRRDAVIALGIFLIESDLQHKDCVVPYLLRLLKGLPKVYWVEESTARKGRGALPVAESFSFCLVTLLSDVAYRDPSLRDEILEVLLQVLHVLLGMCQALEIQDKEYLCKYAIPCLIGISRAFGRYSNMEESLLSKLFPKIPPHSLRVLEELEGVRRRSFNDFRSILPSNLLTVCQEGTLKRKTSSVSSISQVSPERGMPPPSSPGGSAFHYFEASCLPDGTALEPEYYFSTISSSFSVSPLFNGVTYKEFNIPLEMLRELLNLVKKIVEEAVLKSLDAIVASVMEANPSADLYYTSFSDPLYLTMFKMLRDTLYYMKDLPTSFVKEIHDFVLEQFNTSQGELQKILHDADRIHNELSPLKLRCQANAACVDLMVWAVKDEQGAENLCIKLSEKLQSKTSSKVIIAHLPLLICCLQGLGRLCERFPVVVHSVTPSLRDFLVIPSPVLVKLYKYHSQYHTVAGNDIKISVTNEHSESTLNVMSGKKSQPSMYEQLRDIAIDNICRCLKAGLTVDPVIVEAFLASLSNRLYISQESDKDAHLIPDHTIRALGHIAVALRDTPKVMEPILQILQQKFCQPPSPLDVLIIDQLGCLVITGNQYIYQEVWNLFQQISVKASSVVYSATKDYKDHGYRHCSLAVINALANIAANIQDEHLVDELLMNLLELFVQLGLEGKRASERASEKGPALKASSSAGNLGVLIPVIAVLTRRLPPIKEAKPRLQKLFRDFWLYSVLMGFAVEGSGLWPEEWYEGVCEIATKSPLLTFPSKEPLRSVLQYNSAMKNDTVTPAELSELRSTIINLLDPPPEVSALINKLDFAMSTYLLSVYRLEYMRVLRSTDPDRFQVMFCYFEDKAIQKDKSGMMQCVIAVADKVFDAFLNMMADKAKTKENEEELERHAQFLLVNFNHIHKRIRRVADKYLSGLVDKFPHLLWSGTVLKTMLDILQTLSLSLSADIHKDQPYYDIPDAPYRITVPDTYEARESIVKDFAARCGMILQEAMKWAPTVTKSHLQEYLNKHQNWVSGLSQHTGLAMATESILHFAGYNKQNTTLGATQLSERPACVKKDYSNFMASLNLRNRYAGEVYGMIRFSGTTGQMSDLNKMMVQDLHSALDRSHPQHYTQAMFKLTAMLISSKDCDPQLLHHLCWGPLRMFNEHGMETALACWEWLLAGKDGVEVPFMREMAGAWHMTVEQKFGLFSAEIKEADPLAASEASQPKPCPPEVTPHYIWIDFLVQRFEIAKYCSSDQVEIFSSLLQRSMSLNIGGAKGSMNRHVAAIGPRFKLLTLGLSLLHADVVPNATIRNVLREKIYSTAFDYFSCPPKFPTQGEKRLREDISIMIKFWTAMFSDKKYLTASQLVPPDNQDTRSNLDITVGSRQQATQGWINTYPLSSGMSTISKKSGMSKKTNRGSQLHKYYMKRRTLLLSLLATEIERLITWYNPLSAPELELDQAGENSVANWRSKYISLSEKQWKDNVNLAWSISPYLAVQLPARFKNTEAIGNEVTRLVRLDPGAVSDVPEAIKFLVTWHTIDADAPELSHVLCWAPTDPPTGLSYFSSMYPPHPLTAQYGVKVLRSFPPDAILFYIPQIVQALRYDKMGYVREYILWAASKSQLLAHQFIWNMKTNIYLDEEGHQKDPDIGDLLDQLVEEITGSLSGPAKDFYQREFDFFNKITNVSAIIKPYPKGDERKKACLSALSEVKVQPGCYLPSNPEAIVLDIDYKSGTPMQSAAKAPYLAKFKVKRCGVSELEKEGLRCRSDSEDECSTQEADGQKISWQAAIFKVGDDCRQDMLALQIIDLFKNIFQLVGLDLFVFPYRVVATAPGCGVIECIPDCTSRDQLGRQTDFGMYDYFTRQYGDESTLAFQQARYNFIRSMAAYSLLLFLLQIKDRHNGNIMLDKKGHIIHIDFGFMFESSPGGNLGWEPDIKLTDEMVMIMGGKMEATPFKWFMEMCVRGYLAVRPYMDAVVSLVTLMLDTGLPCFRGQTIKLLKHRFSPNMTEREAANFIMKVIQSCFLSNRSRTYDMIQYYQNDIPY

Q: Which results are given for C=CC(=O)Nc1cc(-n2c(=O)ccc3cnc4ccc(-c5ccc(NS(C)(=O)=O)cc5)cc4c32)ccc1C?
A: % of control ([1]; at 1 µM): 100%; % of control ([1]; at 10 µM): 100%

Q: With Cc1cc(F)c(C(=O)Nc2cccc(-c3nncn3C(C)C)n2)cc1-n1cnc(C2CC2)c1 as the compound, how does the % of control [2] read?
A: Its % of control is 100%.

Q: And the % of control [3]?
A: Its % of control is 97%.

Q: With Cn1cc(-n2cnc3c(NCc4nc5cc(Cl)c(Cl)cc5[nH]4)nc(N4CCOCC4)nc32)cn1 as the compound, how does the % of inhibition [4] read?
A: The % of inhibition was -3.32%.

Q: For Cc1cc(C)cc([C@H]2c3cc(C)ccc3NC(=O)CN2C(=O)c2ccc(Br)s2)c1, which % of activity [5] is on record?
A: The % of activity was 104%.

Q: Which % of control [6] does the source give for Cc1cc([C@@H](C)Nc2ccccc2C(=O)O)c2nc(N3CCOCC3)cc(=O)n2c1 [AZD-6482] here?
A: Its % of control is 89%.
